Source: patent US10473647B1, “Peptides for use in treatment and diagnosis of type 1 diabetes” (ImmusanT, Inc., priority 2014, dated 2019)

Tests used:
Format in all cases: cell-based, human
[1] = tested on: whole blood from subjects with T1D and Celiac disease; experiment: Whole blood cytokine release assay, IFN-γ (MAGPIX), Example 1; conditions: individual 17mer 20 μg/mL, blood 6 days after commencing oral gluten challenge; for subjects with elevated whole blood IFN-γ release: four subjects
[2] = tested on: whole blood from subjects with T1D and Celiac disease; experiment: Whole blood cytokine release assay, IP-10 (MAGPIX), Example 1; conditions: individual 17mer 20 μg/mL, blood 6 days after commencing oral gluten challenge; for subjects with elevated whole blood IP-10 release (2-fold greater than medium alone): four subjects
[3] = tested on: whole blood from subjects with T1D and Celiac disease; experiment: Whole blood cytokine release assay, IL-2 (MAGPIX), Example 1; conditions: individual 17mer 20 μg/mL, blood 6 days after commencing oral gluten challenge; for subjects with elevated whole blood IL-2 release: four subjects

| Sequence | IFN-g fold-change ([1]; Subject 1) | IFN-g fold-change (preproinsulin peptides) ([1]; Subject 1) | IFN-g fold-change ([1]; Subject 2) | IFN-g fold-change (preproinsulin peptides) ([1]; Subject 2) | IFN-g fold-change ([1]; Subject 6) | IFN-g fold-change (preproinsulin peptides) ([1]; Subject 6) | IFN-g fold-change ([1]; Subject 7) | IFN-g fold-change (preproinsulin peptides) ([1]; Subject 7) | IP-10 fold-change ([2]; Subject 1) | IP-10 fold-change (preproinsulin peptides) ([2]; Subject 1) | IP-10 fold-change ([2]; Subject 2) | IP-10 fold-change (preproinsulin peptides) ([2]; Subject 2) | IP-10 fold-change ([2]; Subject 6) | IP-10 fold-change (preproinsulin peptides) ([2]; Subject 6) | IP-10 fold-change ([2]; Subject 7) | IP-10 fold-change (preproinsulin peptides) ([2]; Subject 7) | IL-2 fold-change ([3]; Subject 1) | subjects with elevated whole blood IFN-γ release [1] | subjects with elevated whole blood IP-10 release (2-fold greater than medium alone) [2] | subjects with elevated whole blood IL-2 release [3] | further results |
| --- | --- | --- | --- | --- | --- | --- | --- | --- | --- | --- | --- | --- | --- | --- | --- | --- | --- | --- | --- | --- | --- |
| EDLQVGEVELGGGPGAG [SEQ ID NO: 50] | 0.93 | 0.93 fold | 1.01 | 1.01 fold | 0.71 | 0.71 fold | 2.06 | 2.06 fold | 1.14 | 1.14 fold | 0.96 | 0.96 fold | 0.87 | 0.87 fold | 1.61 | 1.61 fold | 1.00 | – | – | – | IL-2 fold-change (preproinsulin peptides) ([3]; Subject 1): 1.00 fold; IL-2 fold-change ([3]; Subject 2): 1.00; IL-2 fold-change (preproinsulin peptides) ([3]; Subject 2): 1.00 fold; IL-2 fold-change ([3]; Subject 6): 1.00; IL-2 fold-change (preproinsulin peptides) ([3]; Subject 6): 1.00 fold; IL-2 fold-change ([3]; Subject 7): 7.35; IL-2 fold-change (preproinsulin peptides) ([3]; Subject 7): 7.35 fold |
| FDRSTKVIDFHYPNELL [SEQ ID NO: 61] | – | – | – | – | – | – | – | – | – | – | – | – | – | – | – | – | – | One subjected responded | One subjected responded | One subjected responded | – |
| FYTPKTRREAEDLQGSL [SEQ ID NO: 46] | 0.92 | 0.92 fold | 1.47 | 1.47 fold | 1.15 | 1.15 fold | 2.02 | 2.02 fold | 1.06 | 1.06 fold | 4.64 | 4.64 fold | 2.24 | 2.24 fold | 2.70 | 2.70 fold | 1.00 | in one of these subjects | three subjects | in one of these subjects | IL-2 fold-change (preproinsulin peptides) ([3]; Subject 1): 1.00 fold; IL-2 fold-change ([3]; Subject 2): 1.00; IL-2 fold-change (preproinsulin peptides) ([3]; Subject 2): 1.00 fold; IL-2 fold-change ([3]; Subject 6): 1.16; IL-2 fold-change (preproinsulin peptides) ([3]; Subject 6): 1.16 fold; IL-2 fold-change ([3]; Subject 7): 8.19; IL-2 fold-change (preproinsulin peptides) ([3]; Subject 7): 8.19 fold |
| GRTGTYILIDMVLNRMA [SEQ ID NO: 12] | – | – | – | – | – | – | – | – | – | – | – | – | – | – | – | – | – | in two subjects | consistently stimulated | consistently stimulated | – |
